The values that follow are results of earlier work, collected in patent publication US7611715B2, “Agaricus extract for preventing the induction or metastasis of cancer” (SSI Co., Ltd., priority 2002, dated 2009).

SMILES strings stand for the structures.

For the series the following is noted: calculated.

With `CCOC(N)=O` [Urethane, ethyl carbamate], the safety dose (virtually safe dose, VSD) in human for liver cancer was 7.2e-05 mg/kg body weight.
